Test results: article PMC6295285 (Pharmaceutical research, 2018)
One block for each compound: values may come before it.

Experiments:
human OCT2 = biological target: T1, human OCT2 (Homo sapiens, UniProt O15244); experiment: Inhibition of metformin uptake in HEK-293 cells overexpressing hOCT2; conditions: for Selectivity category hOCT2 versus hMATEs: comparison of IC50 for hOCT2, hMATE1, hMATE2-K; for Effect on hOCT2 activity at low concentrations (hOCT2-enhancer): low but clinically relevant concentrations (less than 10 μM)
T1 sequence (O15244 1-555): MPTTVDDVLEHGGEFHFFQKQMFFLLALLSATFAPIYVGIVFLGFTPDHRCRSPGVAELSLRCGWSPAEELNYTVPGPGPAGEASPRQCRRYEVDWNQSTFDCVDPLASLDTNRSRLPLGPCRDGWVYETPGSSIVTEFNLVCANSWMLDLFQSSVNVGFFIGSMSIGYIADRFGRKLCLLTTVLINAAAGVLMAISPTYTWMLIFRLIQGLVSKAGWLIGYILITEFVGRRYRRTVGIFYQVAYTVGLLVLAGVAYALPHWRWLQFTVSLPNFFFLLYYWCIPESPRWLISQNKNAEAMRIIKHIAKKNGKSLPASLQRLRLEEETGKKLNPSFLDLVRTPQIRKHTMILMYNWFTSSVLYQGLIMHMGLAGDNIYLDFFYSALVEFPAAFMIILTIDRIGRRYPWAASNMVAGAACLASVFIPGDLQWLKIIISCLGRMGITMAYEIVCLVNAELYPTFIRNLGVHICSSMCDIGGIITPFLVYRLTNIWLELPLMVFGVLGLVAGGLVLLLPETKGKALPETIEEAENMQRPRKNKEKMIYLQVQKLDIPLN

mouse Mate1 = biological target: T2, mouse Mate1 (Mus musculus, UniProt Q8K0H1); experiment: Inhibition of metformin uptake in HEK-293 cells overexpressing mouse Mate1; format: cell-based
T2 sequence (Q8K0H1 1-567): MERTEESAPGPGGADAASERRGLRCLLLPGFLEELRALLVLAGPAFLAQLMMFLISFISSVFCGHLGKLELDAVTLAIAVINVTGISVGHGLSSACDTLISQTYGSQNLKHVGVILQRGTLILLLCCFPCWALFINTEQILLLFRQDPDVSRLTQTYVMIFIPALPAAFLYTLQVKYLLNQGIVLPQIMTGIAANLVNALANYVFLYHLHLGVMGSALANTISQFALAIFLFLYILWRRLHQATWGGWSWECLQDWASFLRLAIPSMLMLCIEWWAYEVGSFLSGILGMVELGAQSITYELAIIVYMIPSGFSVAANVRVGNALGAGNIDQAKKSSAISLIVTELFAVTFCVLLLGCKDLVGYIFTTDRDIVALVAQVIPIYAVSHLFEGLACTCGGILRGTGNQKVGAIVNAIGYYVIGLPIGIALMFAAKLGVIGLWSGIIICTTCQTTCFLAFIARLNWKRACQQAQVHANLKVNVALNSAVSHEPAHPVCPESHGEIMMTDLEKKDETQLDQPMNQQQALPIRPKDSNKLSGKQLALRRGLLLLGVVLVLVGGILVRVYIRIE

[1] = cited from earlier work
mouse Oct1 = biological target: T3, mouse Oct1 (Mus musculus, UniProt O08966); experiment: Inhibition of metformin uptake in HEK-293 cells overexpressing mouse Oct1; format: cell-based
T3 sequence (O08966 1-556): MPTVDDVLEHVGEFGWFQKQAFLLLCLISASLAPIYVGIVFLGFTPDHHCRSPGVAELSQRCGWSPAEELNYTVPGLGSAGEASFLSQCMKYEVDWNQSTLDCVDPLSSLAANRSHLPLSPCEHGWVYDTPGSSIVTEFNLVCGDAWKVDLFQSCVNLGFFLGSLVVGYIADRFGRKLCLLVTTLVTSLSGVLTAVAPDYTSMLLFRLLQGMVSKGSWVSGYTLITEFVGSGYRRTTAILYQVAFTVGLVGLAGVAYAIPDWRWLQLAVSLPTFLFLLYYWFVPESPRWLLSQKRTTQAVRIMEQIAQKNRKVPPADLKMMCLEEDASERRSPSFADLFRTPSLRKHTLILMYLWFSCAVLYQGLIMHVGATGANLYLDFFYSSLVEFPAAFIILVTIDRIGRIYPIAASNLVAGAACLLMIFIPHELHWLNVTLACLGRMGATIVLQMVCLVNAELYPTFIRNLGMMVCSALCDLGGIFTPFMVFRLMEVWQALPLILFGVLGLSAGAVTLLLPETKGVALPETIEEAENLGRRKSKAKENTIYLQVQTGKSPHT

C57BL/6J mice = experiment: Cisplatin-induced nephrotoxicity in mice; format: in vivo, mouse; conditions: 72 h
[2] = Metformin pharmacokinetics in mice with carvedilol; format: in vivo, mouse; conditions: carvedilol 2 mg/kg; at 30, 45 and 60 min
human OCT1 = biological target: T4, human OCT1 (Homo sapiens, UniProt O15245); experiment: Inhibition of metformin uptake in HEK-293 cells overexpressing hOCT1; format: cell-based
T4 sequence (O15245 1-554): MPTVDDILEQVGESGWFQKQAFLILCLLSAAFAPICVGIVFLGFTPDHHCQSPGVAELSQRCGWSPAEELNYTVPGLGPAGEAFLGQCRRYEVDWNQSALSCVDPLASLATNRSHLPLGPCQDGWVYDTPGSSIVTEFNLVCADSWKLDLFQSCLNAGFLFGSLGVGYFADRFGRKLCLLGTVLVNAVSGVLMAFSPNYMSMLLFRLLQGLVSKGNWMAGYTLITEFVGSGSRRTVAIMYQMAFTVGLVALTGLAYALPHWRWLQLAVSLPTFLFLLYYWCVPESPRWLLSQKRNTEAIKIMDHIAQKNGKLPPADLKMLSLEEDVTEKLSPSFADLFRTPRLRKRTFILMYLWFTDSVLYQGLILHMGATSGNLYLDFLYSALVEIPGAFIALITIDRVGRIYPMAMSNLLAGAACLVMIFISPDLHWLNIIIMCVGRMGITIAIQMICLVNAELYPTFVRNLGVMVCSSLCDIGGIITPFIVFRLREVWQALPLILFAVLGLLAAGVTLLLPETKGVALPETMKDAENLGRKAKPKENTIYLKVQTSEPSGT

human MATE1 = biological target: T5, human MATE1 (Homo sapiens, UniProt Q96FL8); experiment: Inhibition of metformin uptake in HEK-293 cells overexpressing hMATE1; format: cell-based; conditions: IC50 for inhibition of hMATE1, metformin 50 μM probe substrate, HEK293-hMATE1
T5 sequence (Q96FL8 1-570): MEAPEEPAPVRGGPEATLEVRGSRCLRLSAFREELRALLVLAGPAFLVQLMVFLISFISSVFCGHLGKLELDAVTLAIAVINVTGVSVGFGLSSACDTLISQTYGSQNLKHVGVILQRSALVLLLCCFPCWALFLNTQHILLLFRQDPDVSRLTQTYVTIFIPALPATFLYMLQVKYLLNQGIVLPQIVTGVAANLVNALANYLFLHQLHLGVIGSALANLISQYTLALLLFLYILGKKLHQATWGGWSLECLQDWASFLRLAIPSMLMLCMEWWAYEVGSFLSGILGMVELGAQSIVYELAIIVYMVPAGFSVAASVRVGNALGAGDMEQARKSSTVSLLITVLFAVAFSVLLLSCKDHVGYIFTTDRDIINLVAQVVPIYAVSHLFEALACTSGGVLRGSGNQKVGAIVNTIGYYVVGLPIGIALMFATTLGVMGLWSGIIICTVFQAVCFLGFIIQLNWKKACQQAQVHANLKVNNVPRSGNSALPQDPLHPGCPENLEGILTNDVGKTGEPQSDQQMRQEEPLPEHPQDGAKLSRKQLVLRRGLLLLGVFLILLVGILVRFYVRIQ

HEK-hOCT2 cells [3] = experiment: Cisplatin cytotoxicity, cell viability by CCK-8; format: cell-based, human; conditions: carvedilol 10 μM + cisplatin 100 μM 2 h, then 22 h
HEK-control cells = experiment: Cisplatin accumulation in HEK-control cells; format: cell-based, human; conditions: carvedilol 10 μM + cisplatin 100 μM 2 h, then 22 h normal medium
mouse Oct2 = biological target: T6, mouse Oct2 (Mus musculus, UniProt O70577); experiment: Inhibition of metformin uptake in HEK-293 cells overexpressing mouse Oct2; format: cell-based
T6 sequence (O70577 1-553): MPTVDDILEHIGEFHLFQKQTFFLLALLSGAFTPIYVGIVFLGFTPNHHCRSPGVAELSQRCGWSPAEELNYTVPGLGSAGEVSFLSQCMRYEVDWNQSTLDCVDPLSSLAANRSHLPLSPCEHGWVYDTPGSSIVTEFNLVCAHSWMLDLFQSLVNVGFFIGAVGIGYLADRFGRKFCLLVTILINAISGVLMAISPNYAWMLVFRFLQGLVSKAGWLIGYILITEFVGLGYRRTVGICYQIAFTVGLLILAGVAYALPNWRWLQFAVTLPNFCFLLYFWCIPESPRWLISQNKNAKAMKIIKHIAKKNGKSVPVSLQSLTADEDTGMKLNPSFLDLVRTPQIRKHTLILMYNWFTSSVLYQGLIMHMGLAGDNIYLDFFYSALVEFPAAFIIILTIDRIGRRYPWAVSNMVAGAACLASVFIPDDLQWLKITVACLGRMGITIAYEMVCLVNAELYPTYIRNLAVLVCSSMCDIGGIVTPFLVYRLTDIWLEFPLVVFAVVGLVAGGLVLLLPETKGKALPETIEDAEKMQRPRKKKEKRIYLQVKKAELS

HEK-hOCT2 cells [4] = experiment: Cisplatin accumulation in HEK-hOCT2 cells; format: cell-based, human; conditions: carvedilol 10 μM + cisplatin 100 μM 2 h, then 22 h normal medium
[5] = carvedilol 2 mg/kg x2 + cisplatin 10 mg/kg

Compound: CCCCOc1ccc(CC(=O)NO)cc1 [Bufexamac]
Selectivity category hOCT2 versus hMATEs (human OCT2): selective hOCT2 inhibitors

Compound: COc1ccccc1OCCNCC(O)COc1cccc2[nH]c3ccccc3c12 (stereo not shown) [Carvedilol]
Selectivity category hOCT2 versus hMATEs (human OCT2): selective hOCT2 inhibitors
IC50 (mouse Mate1): 67 µM
Time to peak plasma concentration ([1]; after oral administration): 1—2 h
Oral bioavailability ([1]; human, oral): 24%
Plasma binding ([1]; mostly bound to albumin): approximately 95%
Terminal half-life ([1]; oral administration): 6—10 h
IC50 (mouse Oct1): 2.8 µM
Kidney histology (renal damage), co-administration (C57BL/6J mice; [5]): substantially ameliorated
Kim-1 gene transcripts in kidney, co-administration (C57BL/6J mice; [5]): almost be brought down to the normal base
Kidney histology, treatment-only group (C57BL/6J mice; carvedilol only): No visible morphological change
Plasma concentrations of metformin compared to vehicle [2]: significantly increased
IC50 (human OCT1): 6.4 µM
IC50 (human MATE1): 103 µM
Cell viability of cisplatin-treated HEK-hOCT2 cells with co-treatment (HEK-hOCT2 cells [3]): significantly rescued
Accumulation of cisplatin in control cells (HEK-control cells): 3.87 ± 0.06 ppm/mg protein
IC50 (mouse Oct2): 23.1 µM
Accumulation of cisplatin in HEK-hOCT2 stable cells (HEK-hOCT2 cells [4]): 3.77 ± 0.02 ppm/mg protein

Compound: CC(C)C(=O)Nc1ccc([N+](=O)[O-])c(C(F)(F)F)c1 [Flutamide]
Selectivity category hOCT2 versus hMATEs (human OCT2): selective hOCT2 inhibitors

The next lines start with results.

Effect on hOCT2 activity at low concentrations (hOCT2-enhancer) (human OCT2): increase hOCT2 activity
Compound: CC(C)(C)NC(=O)[C@@H]1C[C@@H]2CCCC[C@@H]2CN1C[C@@H](O)[C@H](Cc1ccccc1)NC(=O)[C@H](CC(N)=O)NC(=O)c1ccc2ccccc2n1 [Saquinavir]
Effect on hOCT2-mediated metformin uptake at high concentrations (human OCT2): could inhibit hOCT2-mediated metformin uptake

Effect on hOCT2 activity at low concentrations (hOCT2-enhancer) (human OCT2): increase hOCT2 activity
Compound: CCC(C)n1ncn(-c2ccc(N3CCN(c4ccc(OCC5COC(Cn6cncn6)(c6ccc(Cl)cc6Cl)O5)cc4)CC3)cc2)c1=O (stereo not shown) [Itraconazole]
Effect on hOCT2-mediated metformin uptake at high concentrations (human OCT2): could inhibit hOCT2-mediated metformin uptake

Effect on hOCT2 activity at low concentrations (hOCT2-enhancer) (human OCT2): increase hOCT2 activity
Compound: C(=C\c1ccccc1)/CN1CCN(C(c2ccccc2)c2ccccc2)CC1 [Cimnasizine]
Effect on hOCT2-mediated metformin uptake at high concentrations (human OCT2): could inhibit hOCT2-mediated metformin uptake
